Source: US20160235686A1, “PROCESSES FOR PREPARING A SOLID POLYMER MATRIX CONTAINING A CORE MATERIAL BY PRESSURE CYCLING OF SUPERCRITICAL FLUID” (priority 2013, published 2016)
Non-standard residues stand in square brackets, D forms with d. Residues, ends and D or L forms follow the SMILES beside them. *: point of attachment. dPhe(4-NHCONH2) = NC(=O)Nc1ccc(C[C@@H](N)C(=O)O)cc1; Dihydroorotyl(S) = O=C1C[C@@H](C(=O)*)NC(=O)N1; dPhe(4-Cl) = N[C@H](Cc1ccc(Cl)cc1)C(=O)O; Phe(4-NH2) = Nc1ccc(C[C@H](N)C(=O)O)cc1; d2Nal = N[C@H](Cc1ccc2ccccc2c1)C(=O)O; Lys(iPr) = CC(C)NCCCC[C@H](N)C(=O)O; d3Pal = N[C@H](Cc1cccnc1)C(=O)O

Test: In vitro release testing of degarelix from microparticles
Type: physicochemical
Conditions: effect of 10 pressure cycles vs no pressure cycling, manitol/acetate buffer pH 4, 37° C.
Description: In-vitro release of microparticles is conducted with a manitol/acetate buffer solution at pH 4. […] Each sample is analysed in triplicate.
A 25 mg sample is weighed out into a 25 mL volumetric flask. 1 mL of acetone is added to the volumetric flask to dissolve the microparticles. Once dissolved, the volumetric flask is topped up with water (approximately 24 mL), precipitating the polymer. A 1 mL sample of the supernatant is taken and centrifuged at 13000 rpm for 3 min. From this, a 200 μL sample is taken and analysed by HPLC. The loading determination method is carried out in triplicate and an average is taken.

decrease in the initial burst release of degarelix from the formulation (FIG. 1, PLGA formulation prepared with processing aid (DMSO)): approximately 15%
decrease in the initial burst release of degarelix from the formulation (FIG. 2, PLGA formulation prepared without a processing aid): approximately 3%
Compound: CC(=O)N[C@H](Cc1ccc2ccccc2c1)C(=O)N[C@H](Cc1ccc(Cl)cc1)C(=O)N[C@H](Cc1cccnc1)C(=O)N[C@@H](CO)C(=O)N[C@@H](Cc1ccc(NC(=O)[C@@H]2CC(=O)NC(=O)N2)cc1)C(=O)N[C@H](Cc1ccc(NC(N)=O)cc1)C(=O)N[C@@H](CC(C)C)C(=O)N[C@@H](CCCCNC(C)C)C(=O)N1CCC[C@H]1C(=O)N[C@H](C)C(N)=O [degarelix] (Ac-[d2Nal][dPhe(4-Cl)][d3Pal]S[Phe(4-NH2)](Dihydroorotyl(S))[dPhe(4-NHCONH2)]L[Lys(iPr)]P[dA]-NH2)
